Patent US12077503B2, “Substituted cyclic amides and their use as herbicides” (FMC CORPORATION, priority 2015, dated 2024)

Assays:
Assay type in all cases: in vivo
[1] = tested on: barnyardgrass (Echinochloa crus-galli); assay: Test G Pre-Emergence Protocol; details: Echinochloa crus-galli, pre-emergence, 312 h, evaluated after 13 days
How it was run: (§1)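 Seeds were sown in standard soil and kept one day in a glasshouse (24/16° C day/night, 14 h light, 65% humidity), then sprayed with compound in acetone/water (50:50) containing 0.5% Tween 20 at 15.625, 62.5 or 250 g/ha. Damage was scored after 13 days (0 = none, 100 = total).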

[2] = tested on: ivy-leaved morning glory (Ipomoea hederacea); assay: Test G Pre-Emergence Protocol; details: Ipomoea, pre-emergence, 312 h, evaluated after 13 days
How it was run: as §1

[3] = tested on: velvetleaf (Abutilon theophrasti); assay: Test G Pre-Emergence Protocol; details: Abutilon theophrasti, pre-emergence, 312 h, evaluated after 13 days
How it was run: as §1

corn (Zea mays) [4] = assay: Test G Pre-Emergence Protocol; details: Zea mays, pre-emergence, 312 h, evaluated after 13 days
How it was run: as §1

[5] = tested on: redroot pigweed (Amaranthus retroflexus); assay: Test G Pre-Emergence Protocol; details: Amaranthus retroflexus, pre-emergence, 312 h, evaluated after 13 days
How it was run: as §1

[6] = tested on: giant foxtail (Setaria faberi); assay: Test G Pre-Emergence Protocol; details: Setaria faberi, pre-emergence, 312 h, evaluated after 13 days
How it was run: as §1

[7] = tested on: barnyardgrass (Echinochloa crus-galli); assay: Test G Post-Emergence Protocol; details: Echinochloa crus-galli, post-emergence, 312 h
How it was run: (§2)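 Sow in soil; grow 8 d (24/16 °C, 14 h light, 65% humidity); spray 15.625/62.5/250 g/ha in acetone:water 50:50 + 0.5% Tween 20; grow on, water twice daily; score damage 0–100 at 13 d.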

[8] = tested on: ivy-leaved morning glory (Ipomoea hederacea); assay: Test G Post-Emergence Protocol; details: Ipomoea, post-emergence, 312 h
How it was run: as §2

[9] = tested on: velvetleaf (Abutilon theophrasti); assay: Test G Post-Emergence Protocol; details: Abutilon theophrasti, post-emergence, 312 h
How it was run: as §2

corn (Zea mays) [10] = assay: Test G Post-Emergence Protocol; details: Zea mays, post-emergence, 312 h
How it was run: as §2

[11] = tested on: redroot pigweed (Amaranthus retroflexus); assay: Test G Post-Emergence Protocol; details: Amaranthus retroflexus, post-emergence, 312 h
How it was run: as §2

[12] = tested on: giant foxtail (Setaria faberi); assay: Test G Post-Emergence Protocol; details: Setaria faberi, post-emergence, 312 h
How it was run: as §2

Cc1cncc(NC(=O)[C@@H]2C(=O)N(C)C[C@H]2c2ccc(C(F)(F)F)cc2)n1 (racemic) [Compound 1647]
pest or weed control at 15.625 g/ha ([1]; 15.625 g ai/ha, read-out: Barnyard grass damage rating (100=total damage to plant; 0=no damage to plant)): 0% | pest or weed control at 62.5 g/ha ([1]; 62.5 g ai/ha, 100=total damage to plant, 0=no damage to plant, read-out: plant damage rating, Barnyardgrass): 0% | pest or weed control at 250 g/ha ([1]; 250 g ai/ha, read-out: Barnyardgrass damage rating (100=total damage to plant; 0=no damage to plant)): 0% | pest or weed control at 15.625 g/ha ([2]; 15.625 g ai/ha, read-out: Morning-glory, Ivy-leaved damage rating (100=total damage to plant; 0=no damage to plant)): 0% | pest or weed control at 62.5 g/ha ([2]; 62.5 g ai/ha, 100=total damage to plant, 0=no damage to plant, read-out: plant damage rating, Morningglory, Ivy-leaved): 0% | pest or weed control at 250 g/ha ([2]; 250 g ai/ha, read-out: Morningglory, Ivy-leaved damage rating (100=total damage to plant; 0=no damage to plant)): 0% | pest or weed control at 15.625 g/ha ([3]; 15.625 g ai/ha, read-out: Velvetleaf damage rating (100=total damage to plant; 0=no damage to plant)): 0% | pest or weed control at 62.5 g/ha ([3]; 62.5 g ai/ha, 100=total damage to plant, 0=no damage to plant, read-out: plant damage rating, Velvetleaf): 0% | pest or weed control at 250 g/ha ([3]; 250 g ai/ha, read-out: Velvetleaf damage rating (100=total damage to plant; 0=no damage to plant)): 10% | plant injury at 15.625 g/ha (corn (Zea mays) [4]; 15.625 g ai/ha, read-out: Corn damage rating (100=total damage to plant; 0=no damage to plant)): 0% | plant injury at 62.5 g/ha (corn (Zea mays) [4]; 62.5 g ai/ha, 100=total damage to plant, 0=no damage to plant, read-out: plant damage rating, Corn): 0% | plant injury at 250 g/ha (corn (Zea mays) [4]; 250 g ai/ha, read-out: Corn damage rating (100=total damage to plant; 0=no damage to plant)): 0% | pest or weed control at 15.625 g/ha ([5]; 15.625 g ai/ha, read-out: Pigweed, Redroot damage rating (100=total damage to plant; 0=no damage to plant)): 0% | pest or weed control at 62.5 g/ha ([5]; 62.5 g ai/ha, 100=total damage to plant, 0=no damage to plant, read-out: plant damage rating, Pigweed, Redroot): 0% | pest or weed control at 250 g/ha ([5]; 250 g ai/ha, read-out: Pigweed, Redroot damage rating (100=total damage to plant; 0=no damage to plant)): 20% | pest or weed control at 15.625 g/ha ([6]; 15.625 g ai/ha, read-out: Foxtail, Giant damage rating (100=total damage to plant; 0=no damage to plant)): 0% | pest or weed control at 62.5 g/ha ([6]; 62.5 g ai/ha, 100=total damage to plant, 0=no damage to plant, read-out: plant damage rating, Foxtail, Giant): 0% | pest or weed control at 250 g/ha ([6]; 250 g ai/ha, read-out: Foxtail, Giant damage rating (100=total damage to plant; 0=no damage to plant)): 70% | pest or weed control at 15.625 g/ha ([7]; 15.625 g ai/ha, evaluated after 13 days (100=total damage to plant; 0=no damage to plant), read-out: Barnyardgrass damage rating): 0% | pest or weed control at 62.5 g/ha ([7]; 62.5 g ai/ha, evaluated after 13 days, read-out: Barnyardgrass damage rating (100=total damage to plant; 0=no damage to plant)): 0% | pest or weed control at 250 g/ha ([7]; 250 g ai/ha, evaluated after 13 days, read-out: damage to plant, Barnyardgrass (100=total damage to plant; 0=no damage to plant)): 50% | pest or weed control at 15.625 g/ha ([8]; 15.625 g ai/ha, evaluated after 13 days (100=total damage to plant; 0=no damage to plant), read-out: Morningglory, Ivy-leaved damage rating): 0% | pest or weed control at 62.5 g/ha ([8]; 62.5 g ai/ha, evaluated after 13 days, read-out: Morningglory, Ivy-leaved damage rating (100=total damage to plant; 0=no damage to plant)): 0% | pest or weed control at 250 g/ha ([8]; 250 g ai/ha, evaluated after 13 days, read-out: damage to plant, Morningglory, Ivy-leaved (100=total damage to plant; 0=no damage to plant)): 20% | pest or weed control at 15.625 g/ha ([9]; 15.625 g ai/ha, evaluated after 13 days (100=total damage to plant; 0=no damage to plant), read-out: Velvetleaf damage rating): 0% | pest or weed control at 62.5 g/ha ([9]; 62.5 g ai/ha, evaluated after 13 days, read-out: Velvetleaf damage rating (100=total damage to plant; 0=no damage to plant)): 0% | pest or weed control at 250 g/ha ([9]; 250 g ai/ha, evaluated after 13 days, read-out: damage to plant, Velvetleaf (100=total damage to plant; 0=no damage to plant)): 40% | plant injury at 15.625 g/ha (corn (Zea mays) [10]; 15.625 g ai/ha, evaluated after 13 days (100=total damage to plant; 0=no damage to plant), read-out: Corn damage rating): 0% | plant injury at 62.5 g/ha (corn (Zea mays) [10]; 62.5 g ai/ha, evaluated after 13 days, read-out: Corn damage rating (100=total damage to plant; 0=no damage to plant)): 0% | plant injury at 250 g/ha (corn (Zea mays) [10]; 250 g ai/ha, evaluated after 13 days, read-out: damage to plant, Corn (100=total damage to plant; 0=no damage to plant)): 10% | pest or weed control at 15.625 g/ha ([11]; 15.625 g ai/ha, evaluated after 13 days (100=total damage to plant; 0=no damage to plant), read-out: Pigweed, Redroot damage rating): 0% | pest or weed control at 62.5 g/ha ([11]; 62.5 g ai/ha, evaluated after 13 days, read-out: Pigweed, Redroot damage rating (100=total damage to plant; 0=no damage to plant)): 0% | pest or weed control at 250 g/ha ([11]; 250 g ai/ha, evaluated after 13 days, read-out: damage to plant, Pigweed, Redroot (100=total damage to plant; 0=no damage to plant)): 30% | pest or weed control at 15.625 g/ha ([12]; 15.625 g ai/ha, evaluated after 13 days (100=total damage to plant; 0=no damage to plant), read-out: Foxtail, Giant damage rating): 0% | pest or weed control at 62.5 g/ha ([12]; 62.5 g ai/ha, evaluated after 13 days, read-out: Foxtail, Giant damage rating (100=total damage to plant; 0=no damage to plant)): 30% | pest or weed control at 250 g/ha ([12]; 250 g ai/ha, evaluated after 13 days, read-out: damage to plant, Foxtail, Giant (100=total damage to plant; 0=no damage to plant)): 70%
